From patent US11382872B2, “LSD1 inhibitors as skeletal muscle hypertrophy inducers” (CYTOO, priority 2016, dated 2022)
Where a name gives a salt, the structure may show the parent alone. Read-outs that look alike come from different tables or passages of the source.

Experiments:
Human primary myoblasts [1] = assay: Hypertrophy assay (MyoScreen human myotube model): primary screening, retest, dose response; type: cell-based
Procedure: Healthy donor primary skeletal cells (Donor 1 and Donor 3) were Clonetics™ Human Skeletal Muscle Myoblasts (HSMM).
(§1) Hypertrophy and Atrophy Rescue assays were performed using an in vitro fully automated human myotube model called MyoScreen™ (Cytoo, France). This model relies on a tight control of the microenvironment that guides the differentiation of human primary myoblasts. Myotubes formed on MyoScreen™ micropatterns present a high level of maturation together with a highly standardized morphology.
(§2) Human primary myoblasts from donors were seeded in MyoScreen™ micropatterned 96-well plates (Cytoo, France), let them adhere for 24 h in growth medium, then run the differentiation in a low horse serum medium for at least 5 days.
(§3) At Day 0, MyoScreen™ plates (Cytoo, France) containing micropatterns were pre-filled with 200 μl/well of growth medium and stored in the incubator at 37° C. Human primary myoblasts were detached from the flasks, count, and seeded into the plates with 15 000 cells per well in 100 μl of growth medium.
(§4) At Day 1, the growth medium was changed for a differentiation medium, 300 μ/well (DMEM with 0.1% horse serum) in which myoblasts started differentiating and forming myotubes.
(§5) At Day 2, the differentiation medium was changed. Then candidate compounds were diluted with differentiation medium and transferred into the plate. The final concentration of DMSO should be not higher than 0.1%. At least 6 wells were treated with the vehicle as a basal control, and 6 wells were treated with IGF-1 at 100 ng/ml as positive hypertrophy control.
(§6) At Day 6, cells were fixed with formalin 5% for 30 min at room temperature, then permeabilized with Triton X-100 at 0.1% in PBS for 15 min, and blocked with PBS+BSA 1% for 20 minutes. Myotubes were incubated with first antibody against Troponin T in blocking buffer for 1 h30, washed three times with PBS, incubated with secondary antibody and Hoescht ( 1/10000) for 1 h30, and washed three times with PBS.
Images were acquired at 10× magnification with an Operetta High Content Imaging System. Image processing and analysis were performed with dedicated algorithms developed on the Acapella High Content Imaging Software (Perkin Elmer) by CYTOO. Eleven fields per well were acquired.
First, segmentation of myotubes and nuclei were done using respectively the Troponin T staining intensity and the Hoechst staining. […] The threshold of segmentation was set-up in order to avoid detecting the background noise and eliminate aberrant small myotube structures.
Then, an image clean-up step was performed on the Troponin T images in order to remove myotubes that touch the border of the image. The final valid myotubes were used to extract myotube morphology parameters including the myotube width and area, and the number of nuclei per myotube.
Nuclei Count, Fusion Index, Mean myotube Area and Number of nuclei per myotube have been validated as relevant and sensitive readouts of myotube differentiation as well as atrophic and hypertrophic induction.
A primary screening was run to identify hypertrophy compounds that increase the myotube differentiation and size. Candidate compounds were tested at 10 μM in monoplicate on Donor 3 cells.
A retest was run, by cherry picking (same compound batch as primary screening): each hit was tested in the same conditions as in the Primary Screening (Donor 3, 10 μM) in six well replicates.
Dose response assays were performed on two healthy donors (Donors 3 and 1): 8 doses of candidate compounds between 33 μM and 0.015 μM, 2 well replicates per dose.

[2] = tested on: Myotubes from the healthy donor 3; assay: Atrophy Rescue assay (MyoScreen) with atrophy inducers; type: cell-based, Human; parameters: key: +++: total rescue; ++: partial rescue; +: low rescue; conditions: tranylcypromine 1 μM; for atrophy rescue, IL-1: inducer IL-1β 25 ng/mL; for atrophy rescue, TGF-β: inducer TGF-β 0.5 ng/mL; for atrophy rescue, TNF-alpha: inducer TNF-α 2 ng/mL; for atrophy rescue, dexamethasone: inducer dexamethasone 100 μM; for atrophy rescue, Myostatin: inducer myostatin 150 ng/mL
Procedure: as §1, §2, §3, §4, §5
For Atrophy Rescue assay, one hour after candidate compound addition, atrophy inducers were added at the following final concentration: 150 ng/mL of myostatin, 25 ng/mL of IL-1β, 2 ng/mL of TNF-α, 0.5 ng/mL of TGF-β and 100 μM of dexamethasone.
as §6
Atrophy Rescue assays were performed in triplicate in the presence of atrophy inducers, i.e. TNF-α, IL-1β, Myostatin, TGF-β and dexamethasone, and at 1 μM tranylcypromine.
Atrophy rescue assays was performed for tranylcypromine. Myotubes from the healthy donor 3 were atrophied using different inducers: TNF-α, IL-1β, Myostatin, TGF-β and dexamethasone. The ability of tranylcypromine to block the atrophy induced by these different atrophy inducers was determined.

Human primary myoblasts [3] = assay: Hypertrophy assay (MyoScreen human myotube model): primary screening, retest, dose response; type: cell-based; remark: listed apart in the source
MyoScreen myotubes = assay: Acetylcholine Receptor (AchR) Clustering Assay (MyoScreen); type: cell-based, Human; conditions: after 7 days of treatment
Procedure: The MyoScreen™ protocol was performed as described in the Hypertrophy and Atrophy rescue assay in example 1 but was stopped at Day 9 instead of Day 6. At the end of the assay, AchR were immunostained using a specific antibody in addition to Troponin T and nuclei. Images were acquired at ×20 with an Operetta High Content Imaging System from Perkin Elmer. Image processing and analyses were performed with a dedicated algorithm developed on the Acapella High Content Imaging Software (Perkin Elmer). Specific readouts were calculated in each well: nuclei count and myotube fusion index, number of AchR, AchR mean area, AchR total area normalized by the myotube total area.
Remarkably, when labeled with a specific anti-AChR antibody, MyoScreen myotubes at 6 days post-differentiation display AChR clusters punctuated along the sarcolemma membrane in the middle of the myotube fiber and in distinct regions at the ends of myotubes. To develop an automated AChR cluster assay, an AChR detection routine was developed that was sensitive and robust enough to analyze aggregate number and size clusters in images using the Operetta/Acapella system (see Materials and Methods).

[4] = Donor 1, first dose response assay (0.015-33 μM)
[5] = Donor 3, first dose response assay (0.015-33 μM)
[6] = Homo sapiens, Myoblast, Donor 3, second dose response assay
[7] = Donor 3, second dose response assay, lower concentrations
[8] = Donor 3, Example 2 dose response
[9] = Donor 5, Example 2 dose response
[10] = Donor 7, compounds at 1 μM (IGF-1 positive control)

N[C@H]1C[C@@H]1c1ccccc1 (relative stereo) [Tranylcypromine, trans-2-phenylcyclopropan-1-amine]
% Activity (Human primary myoblasts [1]; [4]): 138% | % Activity (Human primary myoblasts [1]; [5]): 127% | EC50 (Human primary myoblasts [1]; [6]): 50 nM | atrophy rescue, IL-1 [2]: +++ | atrophy rescue, TGF-β [2]: + | atrophy rescue, TNF-alpha [2]: + | atrophy rescue, dexamethasone [2]: ++ | atrophy rescue, Myostatin [2]: +++ | % Activity (Human primary myoblasts [3]; [7]): 135% | EC50 (Human primary myoblasts [3]; Homo sapiens, Myoblast, Donor 1, first dose response assay): < 300 nM | activity at 10 µM (Human primary myoblasts [3]; Homo sapiens, Myoblast, Donor 3, compounds 10 μM, monoplicate (IGF-1 control 100 ng/ml), Myotube fusion index (compound)*100/basal control, read-out: Primary screening (% Activity)): 176% | activity at 10 µM (Human primary myoblasts [3]; Homo sapiens, Myoblast, Donor 3, compounds 10 μM, six well replicates (IGF-1 control 100 ng/ml), Myotube fusion index (compound)*100/basal control, read-out: Retest (% Activity)): 136% | EC50 (Human primary myoblasts [3]; Homo sapiens, Myoblast, Donor 3, first dose response assay): < 30 nM | increase in the fusion index or/and myotube area readouts (Human primary myoblasts [3]; primary screening and retest, Donor 3, 10 μM): > 30%

Cl.Cl.NNCCc1ccc(NC(=O)CCCc2ccccc2)cc1 [Bizine]
% Activity (Human primary myoblasts [1]; [8]): 120% | EC50 (Human primary myoblasts [1]; [8]): < 350 nM | % Activity (Human primary myoblasts [3]; [9]): 119% | EC50 (Human primary myoblasts [3]; [9]): 87 nM | % Activity (Human primary myoblasts [3]; [10]): 116% at 1 μM

c1ccc(C2C[C@H]2NC2CCNCC2)cc1 (stereo partly drawn) [GSK LSD1]
EC50 (Human primary myoblasts [1]; [6]): 0.1 nM | increase of AchR cluster total area (normalized by total myotube area) (MyoScreen myotubes; Donor 3): 50% | increase of AchR cluster total area (normalized by total myotube area) (MyoScreen myotubes; Donor 5): 260% | % Activity (Human primary myoblasts [3]; [7]): 145% | % Activity (Human primary myoblasts [3]; [9]): 146% | EC50 (Human primary myoblasts [3]; Homo sapiens, Myoblast, Donor 5, Example 2 dose response): 0.012 nM | activity at 1 µM (Human primary myoblasts [3]; Homo sapiens, Myoblast, Donor 7, compounds at 1 μM (IGF-1 positive control)): 120% | activity at 1 µM (Human primary myoblasts [3]; Homo sapiens, Myoblast, Donor C1, compound at 1 μM (IGF-1 positive control)): 154% | activity at 1 µM (Human primary myoblasts [3]; Homo sapiens, Myoblast, Donor C13, compound at 1 μM (IGF-1 positive control)): 123%

CN1CCN(C(=O)CN[C@H]2C[C@@H]2c2ccc(OCc3ccccc3)cc2)CC1 [RN 1 dihydrochloride]
EC50 (Human primary myoblasts [1]; [6]): 0.1 nM | % Activity (Human primary myoblasts [3]; [7]): 135%

IGF-1: insulin-like growth factor I, positive hypertrophy control at 100 ng/ml
% Activity (Human primary myoblasts [1]; [4]): 150% | % Activity (Human primary myoblasts [1]; [8]): 190% | Primary screening (% Activity) (Human primary myoblasts [1]; Donor 3, compounds 10 μM, monoplicate (IGF-1 control 100 ng/ml), Myotube fusion index (compound)*100/basal control): 210% | % Activity (Human primary myoblasts [1]; [5]): 150% | atrophy rescue, IL-1 [2]: +++ | atrophy rescue, TGF-β [2]: ++ | atrophy rescue, TNF-alpha [2]: +++ | atrophy rescue, dexamethasone [2]: +++ | atrophy rescue, Myostatin [2]: +++ | Retest (% Activity) (Human primary myoblasts [3]; Donor 3, compounds 10 μM, six well replicates (IGF-1 control 100 ng/ml), Myotube fusion index (compound)*100/basal control): 190% | % Activity (Human primary myoblasts [3]; [7]): 150% | % Activity (Human primary myoblasts [3]; [9]): 145% | % Activity (Human primary myoblasts [3]; [10]): 119% | % Activity (Human primary myoblasts [3]; Donor C1, compound at 1 μM (IGF-1 positive control)): 124% | % Activity (Human primary myoblasts [3]; Donor C13, compound at 1 μM (IGF-1 positive control)): 141%
